# Assay results taken from publication PMC2806265, “Divergence of allosteric effects of rapacuronium on binding and function of muscarinic receptors” (BMC Pharmacology, 2009).
# Marks after values point to notes of the source that are not given here.
# What was measured:
# [1] = target: T1, M4 muscarinic receptor (Homo sapiens, UniProt P08173); experiment: [3H]ACh saturation binding; set-up: host or cells: CHO cells, stably transfected; membranes
# T1 sequence (P08173 1-479): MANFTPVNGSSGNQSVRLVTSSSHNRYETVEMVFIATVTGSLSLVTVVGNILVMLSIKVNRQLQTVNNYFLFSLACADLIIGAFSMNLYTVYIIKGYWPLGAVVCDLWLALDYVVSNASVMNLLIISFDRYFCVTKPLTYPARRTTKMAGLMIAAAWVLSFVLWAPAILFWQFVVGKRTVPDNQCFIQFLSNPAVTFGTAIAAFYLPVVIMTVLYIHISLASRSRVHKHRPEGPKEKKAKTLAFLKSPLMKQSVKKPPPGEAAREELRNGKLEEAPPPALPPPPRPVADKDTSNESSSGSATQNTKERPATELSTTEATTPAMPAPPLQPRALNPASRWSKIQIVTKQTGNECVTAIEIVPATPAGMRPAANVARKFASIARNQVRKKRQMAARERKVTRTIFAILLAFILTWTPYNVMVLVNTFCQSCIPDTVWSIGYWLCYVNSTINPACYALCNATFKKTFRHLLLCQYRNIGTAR
# Description: (§1) BMAX, maximum binding capacity; KD, equilibrium dissociation constant.
# [2] = target: T2, M2 muscarinic receptor (Homo sapiens, UniProt P08172); experiment: [3H]ACh association and dissociation kinetics; assay type: binding; set-up: host or cells: CHO cells, stably transfected; membrane preparation; details: 10 μM rapacuronium, 40 nM [^3H]ACh
# T2 sequence (P08172 1-466): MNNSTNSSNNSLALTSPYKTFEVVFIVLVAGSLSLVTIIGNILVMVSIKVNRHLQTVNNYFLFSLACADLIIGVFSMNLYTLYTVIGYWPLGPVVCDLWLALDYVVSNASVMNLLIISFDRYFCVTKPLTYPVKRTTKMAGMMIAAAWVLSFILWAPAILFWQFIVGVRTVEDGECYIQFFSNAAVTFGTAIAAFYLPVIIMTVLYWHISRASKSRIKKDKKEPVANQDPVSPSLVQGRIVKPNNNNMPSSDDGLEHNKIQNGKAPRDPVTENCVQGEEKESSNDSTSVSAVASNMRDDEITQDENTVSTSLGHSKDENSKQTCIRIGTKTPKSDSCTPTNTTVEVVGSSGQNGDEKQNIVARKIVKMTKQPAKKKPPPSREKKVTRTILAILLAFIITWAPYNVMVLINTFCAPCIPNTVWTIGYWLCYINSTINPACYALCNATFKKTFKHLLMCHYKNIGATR
# Description: y, radioligand binding at time x; kobs, observed rate of association; equilibrium binding Beq = Bottom + Span.
# (§2) y, radioligand binding at time x normalized to binding at time 0; koff1 and koff2, dissociation rate constants; f2, fraction of binding site with dissociation rate constant koff2. When both Eq. 7a and 7b were fitted to data the better fit was chosen based on sum of squares F-test and runs test.
# [3] = target: T1, M4 muscarinic receptor; experiment: Effect of rapacuronium on low-affinity ACh binding ([3H]NMS + GTPγS + ACh); set-up: host or cells: CHO cells, stably transfected; membranes
# Description: (§3) […]. Data are expressed as percent of specific binding in the absence of rapacuronium. […]. […] Data are means ± SE from 3 independent experiments performed in quadruplicates. Curves are fits of Eq. 3 (circles) and Eq. 4 (squares and triangles) to data prior to normalization.
# (§4) […]. […] […].
# [4] = target: T3, M5 muscarinic receptor (Homo sapiens, UniProt P08912); experiment: as above; set-up: host or cells: CHO cells, stably transfected; membranes
# T3 sequence (P08912 1-532): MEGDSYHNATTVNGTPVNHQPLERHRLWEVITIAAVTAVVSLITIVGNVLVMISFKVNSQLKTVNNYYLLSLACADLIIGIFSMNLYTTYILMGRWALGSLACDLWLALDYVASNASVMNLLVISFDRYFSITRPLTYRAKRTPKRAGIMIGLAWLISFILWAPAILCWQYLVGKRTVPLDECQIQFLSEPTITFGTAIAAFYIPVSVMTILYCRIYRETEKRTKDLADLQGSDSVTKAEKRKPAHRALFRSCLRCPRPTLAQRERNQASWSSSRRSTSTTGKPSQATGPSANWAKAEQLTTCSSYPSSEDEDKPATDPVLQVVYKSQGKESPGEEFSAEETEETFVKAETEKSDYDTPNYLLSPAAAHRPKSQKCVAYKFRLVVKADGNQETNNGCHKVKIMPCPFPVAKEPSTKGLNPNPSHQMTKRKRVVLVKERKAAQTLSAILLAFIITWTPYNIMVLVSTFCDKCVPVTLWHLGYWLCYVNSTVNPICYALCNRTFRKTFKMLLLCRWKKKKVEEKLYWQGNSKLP
# Description: as §3, §4
# [5] = target: T4, M1 muscarinic receptor (Homo sapiens, UniProt P11229); assay type: binding; details: + 100 μM rapacuronium
# T4 construct: host or cells: CHO cells, stably transfected; membrane preparation
# T4 sequence (P11229 1-460): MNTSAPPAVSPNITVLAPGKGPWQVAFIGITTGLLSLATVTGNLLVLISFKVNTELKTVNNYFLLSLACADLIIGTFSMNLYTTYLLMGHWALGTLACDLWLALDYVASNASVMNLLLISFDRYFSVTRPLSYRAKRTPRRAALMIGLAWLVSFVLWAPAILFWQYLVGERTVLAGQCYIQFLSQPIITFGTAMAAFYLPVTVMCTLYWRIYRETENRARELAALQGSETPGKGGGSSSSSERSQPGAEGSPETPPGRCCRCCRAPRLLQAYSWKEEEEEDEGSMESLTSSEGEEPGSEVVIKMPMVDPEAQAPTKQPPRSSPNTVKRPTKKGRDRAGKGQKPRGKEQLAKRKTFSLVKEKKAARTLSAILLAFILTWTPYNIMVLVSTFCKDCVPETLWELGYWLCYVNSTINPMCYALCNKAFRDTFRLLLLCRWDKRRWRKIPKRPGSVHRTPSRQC
# Description: as §2
# [6] = target: T5, M3 muscarinic receptor (Homo sapiens, UniProt P20309); assay type: binding
# T5 construct: host or cells: CHO cells, stably transfected; membranes
# Description: as §2
# [7] = target: T4, M1 muscarinic receptor; experiment: [3H]ACh saturation binding
# Description: as §1
# [8] = target: T5, M3 muscarinic receptor; experiment: [3H]ACh saturation binding
# Description: as §1
# T5 sequence (P20309 whole entry): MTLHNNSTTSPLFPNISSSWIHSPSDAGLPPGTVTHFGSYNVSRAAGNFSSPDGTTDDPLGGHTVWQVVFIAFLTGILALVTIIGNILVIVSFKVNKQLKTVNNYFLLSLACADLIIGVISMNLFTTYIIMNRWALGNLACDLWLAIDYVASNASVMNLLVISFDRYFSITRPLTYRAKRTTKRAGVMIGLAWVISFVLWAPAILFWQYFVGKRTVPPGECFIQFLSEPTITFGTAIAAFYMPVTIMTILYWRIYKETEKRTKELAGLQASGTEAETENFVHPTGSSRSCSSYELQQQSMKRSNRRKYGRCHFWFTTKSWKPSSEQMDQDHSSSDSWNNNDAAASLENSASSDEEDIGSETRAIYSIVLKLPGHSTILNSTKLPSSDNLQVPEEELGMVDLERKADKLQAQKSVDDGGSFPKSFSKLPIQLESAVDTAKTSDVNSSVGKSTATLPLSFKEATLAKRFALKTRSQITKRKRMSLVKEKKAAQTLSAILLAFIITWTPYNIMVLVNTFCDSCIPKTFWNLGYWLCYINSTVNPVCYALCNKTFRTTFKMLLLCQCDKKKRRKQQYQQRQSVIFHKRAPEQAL
smiles,measurement,setting,value
C=CC[N+]1([C@H]2C[C@H]3[C@@H]4CC[C@H]5C[C@H](OC(C)=O)[C@@H](N6CCCCC6)C[C@]5(C)[C@H]4CC[C@]3(C)[C@H]2OC(=O)CC)CCCCC1 [rapacuronium],BMAX of [^3H]ACh,[1]; + 10 μM rapacuronium,0.54 ± 0.05 fmol/μg of protein
same,BMAX of [^3H]ACh,[1]; + 100 μM rapacuronium,0.47 ± 0.04 fmol/μg of protein
same,time of peak of [^3H]ACh association,[2],around 90 seconds
same,Kd,[3],3.24 µM
same,decrease in ACh low-affinity binding (cooperativity),[3]; M4,36 times
same,"pβ, cooperativity with ACh low affinity binding","[3]; M4, negative value = negative cooperativity",-1.56 ± 0.07
same,Kd,[4],11.2 µM
same,"pβ, cooperativity with ACh low affinity binding","[4]; M5, negative value = negative cooperativity",-1.28 ± 0.07
same,"f2, fraction of sites with faster dissociation",[5],14 ± 3%
same,koff1 of [^3H]NMS dissociation,[5],0.014 ± 0.001* min^-1
same,koff2 of [^3H]NMS dissociation,[5],0.00567 ± 0.00083 s⁻¹
same,decrease in rate of [^3H]NMS dissociation,[6]; 100 μM rapacuronium,40%
same,"f2, fraction of sites with faster dissociation",[6]; + 100 μM rapacuronium,20 ± 4%
same,koff1 of [^3H]NMS dissociation,[6]; + 100 μM rapacuronium,0.031 ± 0.002* min^-1
same,koff2 of [^3H]NMS dissociation,[6]; + 100 μM rapacuronium,0.000967 ± 0.00015 s⁻¹
same,BMAX of [^3H]ACh,[7]; + 10 μM rapacuronium,0.33 ± 0.05 fmol/μg of protein
same,BMAX of [^3H]ACh,[7]; + 100 μM rapacuronium,0.32 ± 0.05 fmol/μg of protein
same,BMAX of [^3H]ACh,[8]; + 10 μM rapacuronium,0.40 ± 0.04 fmol/μg of protein
same,BMAX of [^3H]ACh,[8]; + 100 μM rapacuronium,0.37 ± 0.05 fmol/μg of protein
